Experimental data taken from patent US6670382B2, “Hydroxyformamidine derivatives and medicines containing the same” (Taisho Pharmaceutical Co., Ltd., priority 2000, dated 2003).

Tests used:
[1] = test system: 20-HETE synthase derived from rat kidney microsome; assay: Inhibitory effect of 20-HETE synthase derived from rat kidney microsome; assay type: biochemical; conditions: SHR rat kidney microsome; for IC50: concentration at which 20-HETE production was inhibited to 50%; for Inhibition (1 µM): inhibition rate of 20-HETE production, subject compound 1 μM, 3H-arachidonic acid, NADPH, 1.5 hours at 37° C., pH 7.4
Procedure: [Inhibitory Effect of 20-HETE Synthase Derived from Rat Kidney Microsome]
Regarding the compounds listed in the Table described above, their inhibitory activities on production of 20-HETE were examined.
This examination was carried out based on the method described in J. Pharmacol. Exp. Ther., Vol. 268, p. 474 (1994).
The subject compound in an amount of 1 μM was added to a 50 mM of 3-morpholinopropanesulfonic acid buffer (MOPS) (pH 7.4), containing 5 mM of magnesium chloride, and 1 mM of ethylenediaminetetraacetic acid (EDTA) disodium salt.
Subsequently, the rat kidney microsome fraction prepared from the kidney of a spontaneously hypertensive rat (male, 6 weeks of age) as an enzyme, [5,6,8,9,11,12,14,15] tritium-arachidonic acid (supplied by Amasham) as a substrate, and NADPH (supplied by Sigma) as a coenzyme were added, and were reacted for 1.5 hours at 37° C.
After the reaction was quenched by adding formic acid (supplied by Wako Pure Chemical Industries Ltd.) to the reaction solution, acetonitrile (final concentration of 50%) was added thereto, and the mixture was allowed to stand for 1.5 hours at room temperature. The amount of 20-HETE production was measured by using a high performance liquid chromatography having a detector for radioactive substances (supplied by Gilson), equipped with an ODS column (Biocyl C18, supplied by Bio-rad).
Setting an amount of 20-HETE production to 100% when no subject compound was added, the inhibition rate (%) was calculated from the amount of 20-HETE production when a subject compound was added.
In addition, setting an amount of 20-HETE production to 100% when no subject compound was added, the concentration of the subject compound at which the production of the 20-HETE was inhibited to 50% when the subject compound is added (IC50 value) was also calculated.

Structure (SMILES) | IC50 [1] [nM] | Inhibition (1 µM) [1] [%] | melting point
O/N=C/Nc1ccc(OCCn2cccc2)nc1 [Comp. 90] | 4.3 | 105.7 | –
CCN(CC)CCCC(C)Oc1ccc(N/C=N/O)cn1 (stereo not drawn) [Comp. 130] | – | – | 122 °C (dec.)
CSCCOc1ccc(N/C=N/O)cn1 [Comp. 92] | 71.9 | 87.6 | 111.5 to 112 °C
O/N=C/Nc1ccc(OCc2ccc(Cl)cc2Cl)nc1 [Comp. 74] | – | 69.3 | –
O/N=C/Nc1ccc(OCc2ccoc2)nc1 [Comp. 40] | – | 86.0 | –
O/N=C/Nc1ccc(OCc2ccncc2)nc1 [Comp. 23] | 3.9 | 104.0 | –
COCCOc1ccc(N/C=N/O)cn1 [Comp. 7] | 781 | 41.9 | 104.5 to 106 °C
CCSCCOc1ccc(N/C=N/O)cn1 [Comp. 28] | 9.9 | 105.0 | –
CCCCCCCCCSc1ccc(N/C=N/O)cn1 [Comp. 115] | – | 89.0 | –
CCCCCCCSc1ccc(N/C=N/O)cn1 [Comp. 114] | – | 85.1 | –
CCCCOCCOc1ccc(N/C=N/O)cn1 [Comp. 61] | 13.1 | 99.8 | 113 to 114.5 °C
Cc1cccc(COc2ccc(N/C=N/O)cn2)n1 [Comp. 41] | – | 83.0 | –
CC(C)OCCOc1ccc(N/C=N/O)cn1 [Comp. 19] | – | 104.0 | –
Cn1c(=O)c2c(ncn2CCOc2ccc(N/C=N/O)cn2)n(C)c1=O [Comp. 88] | – | 71.8 | –
CCCCCCCCOc1ccc(N/C=N/O)cn1 [Comp. 44] | – | 100.7 | –
O/N=C/Nc1ccc(OCCCn2cccc2)nc1 [Comp. 91] | 6.4 | 103.0 | 140 to 141 °C
O/N=C/Nc1ccc(OCC2COCO2)nc1 (stereo not drawn) [Comp. 87] | 264 | 87.0 | 186.5 to 187 °C
O/N=C/Nc1ccc(OCC2CCCCC2)nc1 [Comp. 11] | 2.7 | 89.0 | –
CC(C)=CCCC(C)CCOc1ccc(N/C=N/O)cn1 (stereo not drawn) [Comp. 70] | – | 108.1 | –
COc1ccc(CCCOc2ccc(N/C=N/O)cn2)cc1 [Comp. 64] | – | 100.7 | –
O/N=C/Nc1ccc(OCC2CCCO2)nc1 (stereo not drawn) [Comp. 96] | 140 | 92.3 | 114 to 115 °C

Structure (SMILES) | IC50 [1] [nM] | Inhibition (1 µM) [1] [%] | melting point
O/N=C/Nc1ccc(OCc2ccccc2CCc2ccccc2)nc1 [Comp. 75] | – | 88.5 | –
CC1(C)OCC(COc2ccc(N/C=N/O)cn2)O1 (stereo not drawn) [Comp. 13] | 24 | 101.0 | –
O/N=C/Nc1ccc(OCc2ccsc2)nc1 [Comp. 38] | 8.5 | 95.0 | –
CC(C)(COc1ccc(N/C=N/O)cn1)CN1CCCCC1 [Comp. 134] | – | – | 91 to 93 °C
CN(C)CCSc1ccc(N/C=N/O)cn1 [Comp. 126] | – | – | 153.5 to 154.5 °C
O/N=C/Nc1ccc(OCCc2ccc(Br)cc2)nc1 [Comp. 67] | – | 108.6 | –
COCCOCCOc1ccc(N/C=N/O)cn1 [Comp. 12] | 87.2 | 99.0 | –
CC(C)(C)CCOc1ccc(N/C=N/O)cn1 [Comp. 30] | – | 102.0 | –
O/N=C/Nc1ccc(OCc2ccco2)nc1 [Comp. 3] | 49.6 | 102.0 | –
O/N=C/Nc1ccc(OCC2CC2)nc1 [Comp. 21] | – | 73.0 | –
O/N=C/Nc1ccc(OCCCCc2ccccc2)nc1 [Comp. 71] | – | 99.0 | –
CCCCCSc1ccc(N/C=N/O)cn1 [Comp. 112] | – | 101.5 | –
CC(=O)OCCOc1ccc(N/C=N/O)cn1 [Comp. 62] | – | 112.8 | –
O/N=C/Nc1ccc(OCCCCCc2ccccc2)nc1 [Comp. 50] | – | 108.2 | –
O/N=C/Nc1ccc(OCc2cccc(Oc3ccccc3)c2)nc1 [Comp. 76] | – | 100.2 | –
CCN(CCOc1ccc(N/C=N/O)cn1)c1cccc(C)c1 [Comp. 85] | – | 100.8 | –
O/N=C/Nc1ccc(OCC2CCCCCC2)nc1 [Comp. 57] | – | 114.2 | –
CN(C)CCOc1ccc(N/C=N/O)cn1 [Comp. 131] | – | – | 105 to 106 °C
O/N=C/Nc1ccc(OCC2CCC2)nc1 [Comp. 26] | 27.2 | 99.0 | –
O/N=C/Nc1ccc(OCc2ccc(-c3ccccc3)cc2)nc1 [Comp. 84] | – | 105.3 | –
CCN(CC)CCOCCOc1ccc(N/C=N/O)cn1 [Comp. 122] | 624 | 99.6 | –

Structure (SMILES) | IC50 [1] [nM] | Inhibition (1 µM) [1] [%] | melting point
CCN(CC)CCOc1ccc(N/C=N/O)cn1 [Comp. 16] | – | 60.0 | –
CCOC(=O)CCCCCOc1ccc(N/C=N/O)cn1 [Comp. 68] | – | 102.6 | –
O/N=C/Nc1ccc(OCc2cccs2)nc1 [Comp. 15] | 9.3 | 100.0 | –
CCC(C)CCOc1ccc(N/C=N/O)cn1 (stereo not drawn) [Comp. 48] | – | 102.8 | –
O/N=C/Nc1ccc(OCCC2CCCCC2)nc1 [Comp. 22] | 2.1 | 108.0 | –
CC(C)=CCC/C(C)=C\COc1ccc(N/C=N/O)cn1 [Comp. 51] | – | 111.0 | –
O/N=C/Nc1ccc(OCc2ccccn2)nc1 [Comp. 6, N-[2-(pyridin-2-ylmethoxy)pyridin-5-yl]-N′-hydroxyformamidine] | – | – | 153.5 to 155.5 °C
O/N=C/Nc1ccc(SC2CCCCC2)nc1 [Comp. 101] | – | 91.8 | –
Cc1cccc(COc2ccc(N/C=N/O)cn2)c1 [Comp. 79] | – | 100.6 | –
COC(=O)CSc1ccc(N/C=N/O)cn1 [Comp. 108] | – | 89.7 | –
Cc1ccc(CCOc2ccc(N/C=N/O)cn2)cc1 [Comp. 60] | – | 109.9 | –
Cc1ncsc1CCOc1ccc(N/C=N/O)cn1 [Comp. 17] | 2.1 | 100.0 | –
CC(C)(C)COc1ccc(N/C=N/O)cn1 [Comp. 39] | – | 62.0 | –
CC(C)=CCOc1ccc(N/C=N/O)cn1 [Comp. 18] | – | 86.0 | –
O/N=C/Nc1ccc(OCCSc2ccccn2)nc1 [Comp. 25] | 9.6 | 71.0 | –
CC(C)CCSc1ccc(N/C=N/O)cn1 [Comp. 106] | – | 77.5 | –
CCOC(=O)CCSc1ccc(N/C=N/O)cn1 [Comp. 118] | – | 100.7 | –
O/N=C/Nc1ccc(OCCOC2CCCCC2)nc1 [Comp. 27] | – | 71.0 | –
O/N=C/Nc1ccc(OCCCc2ccccc2)nc1 [Comp. 14] | 1.5 | 104.0 | –
COc1ccc(CCCOc2ccc(N/C=N/O)cn2)cc1OC [Comp. 63] | – | 102.3 | –
CCN(CC)CCC(Oc1ccc(N/C=N/O)cn1)C(F)(F)F (stereo not drawn) [Comp. 129] | – | – | 109 to 111 °C

Structure (SMILES) | IC50 [1] [nM] | Inhibition (1 µM) [1] [%] | melting point
O/N=C/Nc1ccc(OCC2CC3CCC2C3)nc1 (stereo not drawn) [Comp. 35] | – | 98.0 | –
O/N=C/Nc1ccc(OCCCOc2ccccc2)nc1 [Comp. 36] | 2.7 | 104.0 | –
COC(=O)COc1ccc(N/C=N/O)cn1 [Comp. 86] | – | 82.6 | –
O/N=C/Nc1ccc(OCCCc2ccncc2)nc1 [Comp. 37] | 3.4 | 96.0 | –
O/N=C/Nc1ccc(OCCCc2cccnc2)nc1 [Comp. 33] | 2.1 | 93.0 | –
CCCCCCCOc1ccc(N/C=N/O)cn1 [Comp. 43] | – | 89.5 | –
CC(C)CCCOc1ccc(N/C=N/O)cn1 [Comp. 49] | – | 107.1 | –
C#CCCOc1ccc(N/C=N/O)cn1 [Comp. 20] | – | 31.0 | –
O/N=C/Nc1ccc(OCCCCC2CCCCC2)nc1 [Comp. 29] | – | 101.0 | –
CC1(C)COC(CCOc2ccc(N/C=N/O)cn2)OC1 [Comp. 34] | 7.6 | 89.0 | –
CCCCSc1ccc(N/C=N/O)cn1 [Comp. 105] | – | 100.5 | –
CCCCCCSc1ccc(N/C=N/O)cn1 [Comp. 113] | – | 81.3 | –
CC(C)=CCC/C(C)=C/COc1ccc(N/C=N/O)cn1 [Comp. 52] | – | 108.7 | –
CCCCCCOc1ccc(N/C=N/O)cn1 [Comp. 42] | – | 105.8 | –
COC(=O)c1ccc(COc2ccc(N/C=N/O)cn2)cc1 [Comp. 83] | – | 98.8 | –
O/N=C/Nc1ccc(SCc2ccc(Cl)cc2)nc1 [Comp. 100] | – | 79.5 | –
C/C=C/C=C/COc1ccc(N/C=N/O)cn1 [Comp. 58] | – | 106.6 | –
CCOC(=O)CSc1ccc(N/C=N/O)cn1 [Comp. 103] | – | 79.9 | –
O/N=C/Nc1ccc(OCCSc2ccccc2)nc1 [Comp. 95] | – | 96.5 | –
COC(=O)CCSc1ccc(N/C=N/O)cn1 [Comp. 116] | – | 93.1 | –
